In ChEMBL document CHEMBL4020788, “Synthesis, SAR and molecular docking studies of benzo[d]thiazole-hydrazones as potential antibacterial and antifungal agents” (2017):
In brackets after ≈: the same amount, converted by molar mass.

Key:
Type in all cases: functional
Fusarium verticillioides [1] = experiment: Antifungal activity against Fusarium moniliforme at 25 ug/ml after 48 hrs by agar well diffusion method; conditions: read-out: DIZ
Fusarium oxysporum [2] = experiment: Antifungal activity against Fusarium oxysporum after 48 to 72 hrs by microdilution method
Staphylococcus aureus [3] = experiment: Antibacterial activity against Staphylococcus aureus at 75 ug/ml after 24 hrs by agar well diffusion method; conditions: read-out: DIZ
Bacillus subtilis [4] = experiment: Antibacterial activity against Bacillus subtilis at 75 ug/ml after 24 hrs by agar well diffusion method; conditions: read-out: DIZ
Escherichia coli [5] = experiment: Antibacterial activity against Escherichia coli at 50 ug/ml after 24 hrs by agar well diffusion method; conditions: read-out: DIZ
Klebsiella pneumoniae [6] = experiment: Antibacterial activity against Klebsiella pneumoniae at 25 ug/ml after 24 hrs by agar well diffusion method; conditions: read-out: DIZ
Staphylococcus aureus [7] = experiment: Antibacterial activity against methicillin resistant Staphylococcus aureus MRSA090 at 25 ug/ml after 24 hrs by agar well diffusion method; conditions: MRSA090, 24 h, read-out: DIZ
Staphylococcus aureus [8] = experiment: Antibacterial activity against methicillin resistant Staphylococcus aureus MRSA090 at 75 ug/ml after 24 hrs by agar well diffusion method; conditions: MRSA090, 24 h, read-out: DIZ
Fusarium oxysporum [9] = experiment: Antifungal activity against Fusarium oxysporum at 100 ug/ml after 48 hrs by agar well diffusion method; conditions: read-out: DIZ
Aspergillus niger [10] = experiment: Antifungal activity against Aspergillus niger at 25 ug/ml after 48 hrs by agar well diffusion method; conditions: read-out: DIZ
Klebsiella pneumoniae [11] = experiment: Antibacterial activity against Klebsiella pneumoniae incubated for overnight by microdilution method
Fusarium oxysporum [12] = experiment: Antifungal activity against Fusarium oxysporum at 75 ug/ml after 48 hrs by agar well diffusion method; conditions: read-out: DIZ
Klebsiella pneumoniae [13] = experiment: Antibacterial activity against Klebsiella pneumoniae at 50 ug/ml after 24 hrs by agar well diffusion method; conditions: read-out: DIZ
Bacillus subtilis [14] = experiment: Antibacterial activity against Bacillus subtilis at 50 ug/ml after 24 hrs by agar well diffusion method; conditions: read-out: DIZ
Fusarium verticillioides [15] = experiment: Antifungal activity against Fusarium moniliforme at 75 ug/ml after 48 hrs by agar well diffusion method; conditions: read-out: DIZ
Aspergillus niger [16] = experiment: Antifungal activity against Aspergillus niger after 48 to 72 hrs by microdilution method
Aspergillus niger [17] = experiment: Antifungal activity against Aspergillus niger at 100 ug/ml after 48 hrs by agar well diffusion method; conditions: read-out: DIZ
Bacillus subtilis [18] = experiment: Antibacterial activity against Bacillus subtilis at 100 ug/ml after 24 hrs by agar well diffusion method; conditions: read-out: DIZ
Escherichia coli [19] = experiment: Antibacterial activity against Escherichia coli incubated for overnight by microdilution method
Fusarium verticillioides [20] = experiment: Antifungal activity against Fusarium moniliforme at 50 ug/ml after 48 hrs by agar well diffusion method; conditions: read-out: DIZ
Bacillus subtilis [21] = experiment: Antibacterial activity against Bacillus subtilis incubated for overnight by microdilution method
Escherichia coli [22] = experiment: Antibacterial activity against Escherichia coli at 25 ug/ml after 24 hrs by agar well diffusion method; conditions: read-out: DIZ
Fusarium oxysporum [23] = experiment: Antifungal activity against Fusarium oxysporum at 50 ug/ml after 48 hrs by agar well diffusion method; conditions: read-out: DIZ
Fusarium verticillioides [24] = experiment: Antifungal activity against Fusarium moniliforme at 100 ug/ml after 48 hrs by agar well diffusion method; conditions: read-out: DIZ
Staphylococcus aureus [25] = experiment: Antibacterial activity against Staphylococcus aureus incubated for overnight by microdilution method
Escherichia coli [26] = experiment: Antibacterial activity against Escherichia coli at 75 ug/ml after 24 hrs by agar well diffusion method; conditions: read-out: DIZ
Staphylococcus aureus [27] = experiment: Antibacterial activity against methicillin resistant Staphylococcus aureus MRSA090 at 100 ug/ml after 24 hrs by agar well diffusion method; conditions: MRSA090, 24 h, read-out: DIZ
Bacillus subtilis [28] = experiment: Antibacterial activity against Bacillus subtilis at 25 ug/ml after 24 hrs by agar well diffusion method; conditions: read-out: DIZ
Staphylococcus aureus [29] = experiment: Antibacterial activity against Staphylococcus aureus at 100 ug/ml after 24 hrs by agar well diffusion method; conditions: read-out: DIZ
Escherichia coli [30] = experiment: Antibacterial activity against Escherichia coli at 100 ug/ml after 24 hrs by agar well diffusion method; conditions: read-out: DIZ
Aspergillus niger [31] = experiment: Antifungal activity against Aspergillus niger at 75 ug/ml after 48 hrs by agar well diffusion method; conditions: read-out: DIZ
Staphylococcus aureus [32] = experiment: Antibacterial activity against Staphylococcus aureus at 50 ug/ml after 24 hrs by agar well diffusion method; conditions: read-out: DIZ
Staphylococcus aureus [33] = experiment: Antibacterial activity against Staphylococcus aureus at 25 ug/ml after 24 hrs by agar well diffusion method; conditions: read-out: DIZ
Klebsiella pneumoniae [34] = experiment: Antibacterial activity against Klebsiella pneumoniae at 75 ug/ml after 24 hrs by agar well diffusion method; conditions: read-out: DIZ
Klebsiella pneumoniae [35] = experiment: Antibacterial activity against Klebsiella pneumoniae at 100 ug/ml after 24 hrs by agar well diffusion method; conditions: read-out: DIZ
Staphylococcus aureus [36] = experiment: Antibacterial activity against methicillin resistant Staphylococcus aureus MRSA090 at 50 ug/ml after 24 hrs by agar well diffusion method; conditions: MRSA090, 24 h, read-out: DIZ
Aspergillus niger [37] = experiment: Antifungal activity against Aspergillus niger at 50 ug/ml after 48 hrs by agar well diffusion method; conditions: read-out: DIZ
Fusarium verticillioides [38] = experiment: Antifungal activity against Fusarium moniliforme after 48 to 72 hrs by microdilution method
Staphylococcus aureus [39] = experiment: Antibacterial activity against methicillin resistant Staphylococcus aureus MRSA090 incubated for overnight by microdilution method
Fusarium oxysporum [40] = experiment: Antifungal activity against Fusarium oxysporum at 25 ug/ml after 48 hrs by agar well diffusion method; conditions: read-out: DIZ

Row | SMILES | zone of inhibition at 25 µg/mL (Fusarium verticillioides [1]) | MIC (Fusarium oxysporum [2]) | zone of inhibition at 75 µg/mL (Staphylococcus aureus [3]) | zone of inhibition at 75 µg/mL (Bacillus subtilis [4]) | zone of inhibition at 50 µg/mL (Escherichia coli [5]) | zone of inhibition at 25 µg/mL (Klebsiella pneumoniae [6]) | zone of inhibition at 25 µg/mL (Staphylococcus aureus [7]) | zone of inhibition at 75 µg/mL (Staphylococcus aureus [8]) | zone of inhibition at 100 µg/mL (Fusarium oxysporum [9]) | zone of inhibition at 25 µg/mL (Aspergillus niger [10]) | MIC (Klebsiella pneumoniae [11]) | zone of inhibition at 75 µg/mL (Fusarium oxysporum [12]) | zone of inhibition at 50 µg/mL (Klebsiella pneumoniae [13]) | zone of inhibition at 50 µg/mL (Bacillus subtilis [14]) | zone of inhibition at 75 µg/mL (Fusarium verticillioides [15]) | MIC (Aspergillus niger [16]) | zone of inhibition at 100 µg/mL (Aspergillus niger [17]) | zone of inhibition at 100 µg/mL (Bacillus subtilis [18]) | MIC (Escherichia coli [19]) | zone of inhibition at 50 µg/mL (Fusarium verticillioides [20]) | other results
1 | Cc1cccc2nc(N/N=C/c3cc4ccccc4[nH]3)sc12 | 8 mm | 22 µg/mL (≈ 71.8 µM) | 24 mm | 19 mm | 24 mm | 4 mm | 16 mm | 27 mm | 36 mm | 12 mm | 25 µg/mL (≈ 81.6 µM) | 31 mm | 9 mm | 14 mm | 9 mm | 25 µg/mL (≈ 81.6 µM) | 30 mm | 21 mm | 24 µg/mL (≈ 78.3 µM) | 14 mm | MIC (Bacillus subtilis [21]): 25 µg/mL (≈ 81.6 µM); zone of inhibition at 25 µg/mL (Escherichia coli [22]): 17 mm; zone of inhibition at 50 µg/mL (Fusarium oxysporum [23]): 24 mm; zone of inhibition at 100 µg/mL (Fusarium verticillioides [24]): 22 mm; MIC (Staphylococcus aureus [25]): 24 µg/mL (≈ 78.3 µM); zone of inhibition at 75 µg/mL (Escherichia coli [26]): 30 mm; zone of inhibition at 100 µg/mL (Staphylococcus aureus [27]): 30 mm; zone of inhibition at 25 µg/mL (Bacillus subtilis [28]): 10 mm; zone of inhibition at 100 µg/mL (Staphylococcus aureus [29]): 30 mm; zone of inhibition at 100 µg/mL (Escherichia coli [30]): 33 mm; zone of inhibition at 75 µg/mL (Aspergillus niger [31]): 24 mm; zone of inhibition at 50 µg/mL (Staphylococcus aureus [32]): 18 mm; zone of inhibition at 25 µg/mL (Staphylococcus aureus [33]): 14 mm; zone of inhibition at 75 µg/mL (Klebsiella pneumoniae [34]): 18 mm; zone of inhibition at 100 µg/mL (Klebsiella pneumoniae [35]): 24 mm; zone of inhibition at 50 µg/mL (Staphylococcus aureus [36]): 23 mm; zone of inhibition at 50 µg/mL (Aspergillus niger [37]): 19 mm; MIC (Fusarium verticillioides [38]): 24 µg/mL (≈ 78.3 µM); MIC (Staphylococcus aureus [39]): 22 µg/mL (≈ 71.8 µM); zone of inhibition at 25 µg/mL (Fusarium oxysporum [40]): 17 mm
2 | Cc1cccc2nc(N/N=C/c3cccs3)sc12 | 7 mm | 23 µg/mL (≈ 84.1 µM) | 24 mm | 21 mm | 14 mm | 7 mm | 13 mm | 22 mm | 30 mm | 11 mm | 26 µg/mL (≈ 95.1 µM) | 29 mm | 11 mm | 15 mm | 12 mm | 30 µg/mL (≈ 110 µM) | 26 mm | 24 mm | 35 µg/mL (≈ 128 µM) | 9 mm | MIC (Bacillus subtilis [21]): 26 µg/mL (≈ 95.1 µM); zone of inhibition at 25 µg/mL (Escherichia coli [22]): 10 mm; zone of inhibition at 50 µg/mL (Fusarium oxysporum [23]): 24 mm; zone of inhibition at 100 µg/mL (Fusarium verticillioides [24]): 15 mm; MIC (Staphylococcus aureus [25]): 32 µg/mL (≈ 117 µM); zone of inhibition at 75 µg/mL (Escherichia coli [26]): 18 mm; zone of inhibition at 100 µg/mL (Staphylococcus aureus [27]): 28 mm; zone of inhibition at 25 µg/mL (Bacillus subtilis [28]): 10 mm; zone of inhibition at 100 µg/mL (Staphylococcus aureus [29]): 28 mm; zone of inhibition at 100 µg/mL (Escherichia coli [30]): 22 mm; zone of inhibition at 75 µg/mL (Aspergillus niger [31]): 21 mm; zone of inhibition at 50 µg/mL (Staphylococcus aureus [32]): 18 mm; zone of inhibition at 25 µg/mL (Staphylococcus aureus [33]): 12 mm; zone of inhibition at 75 µg/mL (Klebsiella pneumoniae [34]): 18 mm; zone of inhibition at 100 µg/mL (Klebsiella pneumoniae [35]): 21 mm; zone of inhibition at 50 µg/mL (Staphylococcus aureus [36]): 16 mm; zone of inhibition at 50 µg/mL (Aspergillus niger [37]): 15 mm; MIC (Fusarium verticillioides [38]): 28 µg/mL (≈ 102 µM); MIC (Staphylococcus aureus [39]): 20 µg/mL (≈ 73.2 µM); zone of inhibition at 25 µg/mL (Fusarium oxysporum [40]): 21 mm
